# Test results: article PMC5120204, “Identification of an orally active small-molecule PTHR1 agonist for the treatment of hypoparathyroidism” (Nature Communications, 2016)
# How the values were obtained:
# rat PTHR2 = biological target: T1, rat PTHR2 (Rattus norvegicus, UniProt P70555); assay: cAMP production assay in COS-7 cells expressing rat PTHR2; format: cell-based
# T1 construct: expressed in transfected cells; host or cells: COS-7 (transient)
# Method: COS-7 cells (ATCC) were seeded into a 96-well flat-bottomed plate (1.4 × 10^4 cells per 100 μl per well) and incubated overnight. The next day, the COS-7 cells were transfected by adding 10 μl of a mixture of hPTHR1, hPTHR2 or mutant hPTHR1 plasmid, rat PTHR1 or rat PTHR2 plasmid, or empty vector (0.1 μg per well), FuGENE HD Transfection Reagent (0.4 μl per well, Promega), and Opti-MEM I Reduced Serum Medium (10 μl per well, Life Technologies) to each well. […] The plate was placed in a 37 °C constant-temperature water bath for 20 min to allow the reaction to proceed. After incubation, the liquid in the wells was discarded, the wells were washed with the assay medium (100 μl per well), and the plate was frozen on dry ice. Next, 40 μl of 50 mmol l^−1 HCl was added to each well, and the plate was stored in a freezer set at ≤−20 °C. The cAMP concentrations were measured by using a cAMP EIA kit (GE Healthcare). EC50 values were determined from three independent experiments in duplicate by a non-linear regression Emax model (JMP ver.9.0.2, SAS Institute). The geometric mean of the EC50 values obtained in three experiments in duplicate was calculated using Microsoft Office Excel 2007. […]
# TPTX rats = assay: Repeated administration study in TPTX rats, study 2 (add-on to alfacalcidol); format: in vivo, rat; details: once-daily oral 6 mg kg^−1 plus 38 ng kg^−1 of alfacalcidol, 4 weeks
# Method: TPTX was carried out in 6-week-old female Crl:CD (SD) rats (Charles River Laboratories). Rats with serum Ca levels of <8.0 mg dl^−1 at 5 days after surgery were used in the following experiments. The rats were divided into four groups both in study 1 and 2, each with a similar mean value of serum Ca levels and body weight. Sample sizes were determined as described in the above single administration study. To evaluate the calcemic effects of PCO371 and hPTHs, we defined a target therapeutic range for serum Ca of 7.6–11.2 mg dl^−1, which corresponds to the low normal to normal range of serum Ca levels.
# TPTX rats were orally treated once daily (vehicle; alfacalcidol (Chugai Pharma Manufacturing) at 38 or 75 ng kg^−1; or alfacalcidol at 38 ng kg^−1 plus PCO371 at 6 mg kg^−1) for 4 weeks. Five or six TPTX rats were assigned to each dose group. The vehicle for alfacalcidol was medium-chain triglyceride (Chugai Pharma Manufacturing). Under isoflurane anaesthesia, jugular vein blood was collected immediately before and at 6 and 10 h after administration to measure serum Ca levels on day 1 (the first dosing day), 8, 14, 22 and 28. Urine was collected for 24 h by using metabolic cages on days 28 and 29. Serum and urine Ca levels were measured in the same way as in the single-dosing study.
# OVX rats = assay: Bone histomorphometry of lumbar vertebra in OVX rats; format: in vivo, rat
# Method: OVX was carried out in 32-week-old female Crl:CD (SD) rats (Charles River Laboratories). Twelve weeks after surgery, lumbar vertebral BMD (L3–L5) was measured in vivo by dual-energy X-ray absorptiometry (DXA) using a DCS-600EX-IIIR bone densitometer (Hitachi Aloka Medical), and the rats were divided into five groups, each with a similar mean value of BMD and body weight. Sample sizes were determined based on previous experiments with hPTHs and a published study with ibandronate and eldecalcitriol in our laboratories[42] (n=7–10). Then, OVX rats were treated once daily intravenously (vehicle or PCO371 at 3 or 10 mg kg^−1) or orally (vehicle or PCO371 at 30 mg kg^−1) or subcutaneously [vehicle or hPTH(1–34) at 0.9 nmol kg^−1] for 12 weeks. Ten to twelve OVX rats were assigned to each dose group. Nine rats were assigned to the sham-operated control group and were treated with vehicle for PCO371. Ten per cent DMSO (Wako Pure Chemical Industries)/10% Kolliphor EL (Sigma-Aldrich) in 10% hydroxypropyl-β-cyclodextrin (HPCD; Nihon Shokuhin Kako)/0.752% glycine (Wako Pure Chemical Industries) buffer was used as vehicle for PCO371, and phosphate-citrate buffer (pH 6.0) was used as vehicle for hPTH(1–34). To label bone-forming surfaces, tetracycline ([…], Nippon Zenyaku Kogyo) was subcutaneously injected on Day 78 and calcein (8 mg kg^−1, Dōjindo Laboratories) was subcutaneously injected on day 83. Under isoflurane anaesthesia, jugular vein blood was collected immediately before and at 1, 2, 6, 10 and 24 h after administration on day 82 to measure plasma concentration of PCO371 or on day 84 to measure serum Ca levels (o-CPC method, Wako Pure Chemical Industries). Urine was collected for 24 h from metabolic cages on days 84–85 to measure urinary collagen type 1 cross-linked C-telopeptide (CTX) by using the RatLaps ELISA System (Immunodiagnostic Systems). Under isoflurane anaesthesia, blood was collected on day 85 from the abdominal aorta to measure serum osteocalcin level by using the Rat Osteocalcin ELISA System (GE Healthcare). The lumbar spine and bilateral femurs were excised after 12 weeks of treatment. The first lumbar vertebra (L1), 3rd to 5th lumbar vertebrae (L3–L5), the right femur, and the right tibia were preserved in 70% ethanol to measure bone histomorphometry and BMD (DCS-600EX; Hitachi Aloka Medical). Measurement of bone histomorphometry was performed by the Ito Bone Histomorphometry Institute (Niigata, Japan). The second lumbar vertebra (L2) was wrapped in saline-soaked gauze and stored at −80 °C until measurement. Ultimate compressive strength (N) of the L2 vertebra was measured by using a mechanical testing machine (TK-252C; Muromachi Kikai).
# [1] = i.v. 3 mg kg-1 once daily 12 weeks
# [2] = i.v. 10 mg kg-1 once daily 12 weeks
# [3] = p.o. 30 mg kg-1 once daily 12 weeks
# T1 sequence (P70555 25-546): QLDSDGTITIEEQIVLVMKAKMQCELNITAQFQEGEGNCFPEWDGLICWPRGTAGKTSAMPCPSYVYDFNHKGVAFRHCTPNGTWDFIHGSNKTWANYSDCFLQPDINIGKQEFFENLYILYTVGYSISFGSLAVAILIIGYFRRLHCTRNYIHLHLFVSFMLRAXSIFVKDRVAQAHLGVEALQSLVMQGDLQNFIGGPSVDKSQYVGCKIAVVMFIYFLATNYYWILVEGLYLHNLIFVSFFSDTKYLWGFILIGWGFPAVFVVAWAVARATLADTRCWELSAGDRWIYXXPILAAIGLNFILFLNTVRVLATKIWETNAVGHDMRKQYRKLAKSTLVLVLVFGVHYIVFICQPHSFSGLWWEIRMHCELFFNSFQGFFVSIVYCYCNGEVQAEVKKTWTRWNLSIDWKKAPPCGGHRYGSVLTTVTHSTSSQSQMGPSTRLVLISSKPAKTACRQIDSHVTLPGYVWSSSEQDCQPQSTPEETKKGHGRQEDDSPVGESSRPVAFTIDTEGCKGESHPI
smiles,measurement,setting,value
"Cc1cc(N2C(=O)NC(=O)C2(C)C)cc(C)c1CCS(=O)(=O)N1CCC2(CC1)N=C(c1ccc(OC(F)(F)F)cc1)NC2=O [PCO371, 1-{3,5-dimethyl-4-[2-({4-oxo-2-[4-(trifluoromethoxy)phenyl]-1,3,8-triazaspiro[4.5]dec-1-en-8-yl}sulfonyl)ethyl]phenyl}-5,5-dimethylimidazolidine-2,4-dione]",cAMP production,rat PTHR2,did not stimulate cAMP production
same,serum Ca,TPTX rats,comparable with that by 75 ng kg^−1 of alfacalcidol alone
same,urinary Ca excretion,TPTX rats,did not elevate urinary Ca excretion
same,BFR/BS (Bone formation rate/Bone surface),OVX rats; [1],0.144 ± 0.013 mm3 per mm2 per year
same,BRs.R,OVX rats; [1],0.039 ± 0.005 mm2 per mm2 per year
same,BV/TV (Bone volume/Tissue volume),OVX rats; [1],23.2 ± 1.9%
same,ES/BS (Eroded surface/Bone surface),OVX rats; [1],27.6 ± 2.5%
same,MAR (Mineral apposition rate),OVX rats; [1],1.84 ± 0.07 µm per day
same,N.Ob/BS (Number of osteoblasts/Bone surface),OVX rats; [1],11.36 ± 0.71 N per mm
same,N.Oc/BS (Number of osteoclasts/Bone surface),OVX rats; [1],2.55 ± 0.22 N per mm
same,OV/TV (Osteoid volume/Tissue volume),OVX rats; [1],0.465 ± 0.040%
same,ObS/BS (Osteoblast surface/Bone surface),OVX rats; [1],14.98 ± 1.07%
same,OcS/BS (Osteoclast surface/Bone surface),OVX rats; [1],8.49 ± 0.79%
same,Tb. N (Trabecular number),OVX rats; [1],3.07 ± 0.18 N per mm
same,Tb. Sp (Trabecular separation),OVX rats; [1],264 ± 24 µm
same,Tb. Th (Trabecular thickness),OVX rats; [1],75.1 ± 4.1 µm
same,BFR/BS (Bone formation rate/Bone surface),OVX rats; [2],0.275 ± 0.022 mm3 per mm2 per year
same,BRs.R,OVX rats; [2],0.071 ± 0.008 mm2 per mm2 per year
same,BV/TV (Bone volume/Tissue volume),OVX rats; [2],20.1 ± 1.1%
same,ES/BS (Eroded surface/Bone surface),OVX rats; [2],33.0 ± 1.6%
same,MAR (Mineral apposition rate),OVX rats; [2],2.22 ± 0.06 µm per day
same,N.Ob/BS (Number of osteoblasts/Bone surface),OVX rats; [2],16.09 ± 1.72 N per mm
same,N.Oc/BS (Number of osteoclasts/Bone surface),OVX rats; [2],3.60 ± 0.20 N per mm
same,OV/TV (Osteoid volume/Tissue volume),OVX rats; [2],0.690 ± 0.076%
same,ObS/BS (Osteoblast surface/Bone surface),OVX rats; [2],24.64 ± 2.70%
same,OcS/BS (Osteoclast surface/Bone surface),OVX rats; [2],11.69 ± 0.70%
same,Tb. N (Trabecular number),OVX rats; [2],2.54 ± 0.11 N per mm
same,Tb. Sp (Trabecular separation),OVX rats; [2],322 ± 18 µm
same,Tb. Th (Trabecular thickness),OVX rats; [2],79.2 ± 2.7 µm
same,BFR/BS (Bone formation rate/Bone surface),OVX rats; [3],0.285 ± 0.023 mm3 per mm2 per year
same,BRs.R,OVX rats; [3],0.057 ± 0.006 mm2 per mm2 per year
same,BV/TV (Bone volume/Tissue volume),OVX rats; [3],20.1 ± 1.4%
same,ES/BS (Eroded surface/Bone surface),OVX rats; [3],39.7 ± 1.6%
same,MAR (Mineral apposition rate),OVX rats; [3],2.28 ± 0.08 µm per day
same,N.Ob/BS (Number of osteoblasts/Bone surface),OVX rats; [3],17.55 ± 1.43 N per mm
same,N.Oc/BS (Number of osteoclasts/Bone surface),OVX rats; [3],4.30 ± 0.27 N per mm
same,OV/TV (Osteoid volume/Tissue volume),OVX rats; [3],0.794 ± 0.085%
same,ObS/BS (Osteoblast surface/Bone surface),OVX rats; [3],25.14 ± 2.09%
same,OcS/BS (Osteoclast surface/Bone surface),OVX rats; [3],13.60 ± 0.69%
same,Tb. N (Trabecular number),OVX rats; [3],2.64 ± 0.14 N per mm
same,Tb. Sp (Trabecular separation),OVX rats; [3],315 ± 24 µm
same,Tb. Th (Trabecular thickness),OVX rats; [3],76.0 ± 3.1 µm
